Holding throughout (format): functional
In experiment [1] the test system is Nephotettix cincticeps. The experiment in a line: Insecticidal activity against Nephotettix cincticeps (green rice leafhopper) fourth instar larvae reared on compound pre-treated rice seedlings assessed as insect mortality at 100 ppm measured after 7 days.
Experiment [2] relates to Aphis craccivora. The experiment can be described thus: Insecticidal activity against Aphis craccivora (cowpea aphid) apterous adults reared on broad bean seedlings followed by compound spraying at 200 ppm assessed as insect mortality measured after 4 days. The settings on record: 96 h.
The test system of experiment [3] is Nilaparvata lugens. The experiment in a line: Insecticidal activity against imidacloprid-sensitive Nilaparvata lugens (brown planthopper) fourth-instar larvae reared on compound pre-treated rice seedlings assessed as insect mortality at 200 ppm measured after 7 days.
The subject of experiment [4] is Nilaparvata lugens. The experiment in a line: Insecticidal activity against imidacloprid-sensitive Nilaparvata lugens (brown planthopper) fourth-instar larvae reared on compound pre-treated rice seedlings assessed as insect mortality at 10 ppm measured after 7 days.
Experiment [5] concerns Nilaparvata lugens. The experiment can be described thus: Insecticidal activity against imidacloprid-sensitive Nilaparvata lugens (brown planthopper) fourth-instar larvae reared on compound pre-treated rice seedlings assessed as insect mortality at 100 ppm measured after 7 days.
The test system of experiment [6] is Nephotettix cincticeps. The experiment can be described thus: Insecticidal activity against Nephotettix cincticeps (green rice leafhopper) fourth instar larvae reared on compound pre-treated rice seedlings assessed as insect mortality at 10 ppm measured after 7 days.

These results are taken from ChEMBL document CHEMBL3046111, “Synthesis and insecticidal activity of 1,2,4-oxadiazole and 1,2,4-thiadiazole derivatives” (2011).

The structures appear in SMILES notation.

For the molecule `CCN1CCC=C(c2nc(C)ns2)C1`, the mortality at 100 ppm in experiment [1] is 50%; in experiment [5], 100%. Also, the mortality at 200 ppm in experiment [2] came to 40%; in experiment [3] it was 100%. The mortality at 10 ppm in experiment [4] came out at 40%; in experiment [6], 10%.
As to `CCCCN1CCC=C(c2nc(C)ns2)C1`, the mortality at 100 ppm in experiment [1] turned out to be 20%; in experiment [5], 100%. The mortality at 200 ppm was 30% in experiment [2] and 100% in experiment [3]. Besides, the results for the mortality at 10 ppm in experiment [4] and in experiment [6] were 30% and 10%, respectively.
Take `CCCCCCCCCC[n+]1cccc(-c2nc(C)ns2)c1`: the values for the mortality at 200 ppm in experiment [2] and in experiment [3] were 60% and 0%, respectively.
The like results for `C=CC[n+]1cccc(-c2nc(C)ns2)c1` were, in that order, 10% and 40%.
Regarding `CCC(C)[n+]1cccc(-c2nc(C)ns2)c1` (centres undefined), the mortality at 100 ppm turned out to be 50% in experiment [1] and 90% in experiment [5]. Moreover, the mortality at 200 ppm amounted to 20% in experiment [2] and 100% in experiment [3]. Further, the mortality at 10 ppm is 90% in experiment [4] and 10% in experiment [6].
Consider `Cc1nsc(-c2ccc[n+](Cc3ccccc3)c2)n1`, for which the results for the mortality at 200 ppm in experiment [2] and in experiment [3] were 10% and 20%, respectively.
As to `C=CCN1CCC=C(c2ncns2)C1`, the results for the mortality at 100 ppm in experiment [1] and in experiment [5] were 60% and 100%, respectively. Also, the mortality at 200 ppm in experiment [2] stood at 40%; in experiment [3] it was 100%. For the same molecule, the results for the mortality at 10 ppm in experiment [4] and in experiment [6] were 60% and 10%, respectively.
Regarding `Cc1nsc(-c2ccccn2)n1`, the figures for the mortality at 200 ppm in experiment [2] and in experiment [3] were 30% and 40%, respectively.
For the molecule `Cc1nsc(-c2ccc[n+](C)c2)n1`, the values for the mortality at 200 ppm in experiment [2] and in experiment [3] were 60% and 40%, respectively.
The like results for `Cc1noc(-c2ccc[n+](C)c2)n1` were, in that order, 10% and 10%.
Turning to `c1cncc(-c2ncns2)c1`, the mortality at 100 ppm amounted to 70% in experiment [1] and 100% in experiment [5]. Further, the mortality at 200 ppm in experiment [2] and in experiment [3] was 100% in each case. The mortality at 10 ppm in experiment [4] is 60%; in experiment [6], 40%.
Consider `C[n+]1cccc(-c2ncns2)c1`, for which the mortality at 200 ppm in experiment [2] amounted to 30%; in experiment [3] it was 80%.
For `c1cncc(-c2ncno2)c1`, the mortality at 200 ppm in experiment [2] came out at 20%; in experiment [3], 50%.
As to `C[n+]1cccc(-c2ncno2)c1`, the mortality at 200 ppm was 20% in experiment [2] and 60% in experiment [3].
As for `C#CCN1CCC=C(c2ncns2)C1`, the mortality at 100 ppm is 60% in experiment [1] and 100% in experiment [5]. The mortality at 200 ppm in experiment [2] is 30%; in experiment [3] it was 100%. Further, the results for the mortality at 10 ppm in experiment [4] and in experiment [6] were 30% and 20%, respectively.
Turning to `Cc1noc(-c2ccncc2)n1`, the values for the mortality at 200 ppm in experiment [2] and in experiment [3] were 0% and 10%, respectively.
For `CCCCCCCCCCN1CCC=C(c2nc(C)ns2)C1`, the mortality at 200 ppm in experiment [2] was found to be 60%; in experiment [3] it was 30%.
In the case of `Cc1nsc(C2=CCCN(CC#N)C2)n1`, the mortality at 100 ppm in experiment [1] came out at 50%; in experiment [5], 100%. For the same molecule, the mortality at 200 ppm in experiment [2] was found to be 50%; in experiment [3], 100%. The mortality at 10 ppm came to 10% in experiment [4] and 0% in experiment [6].
`Cc1noc(C2=CCCN(C)C2)n1`: the mortality at 100 ppm in experiment [1] and in experiment [5] was 90% each time. The mortality at 200 ppm turned out to be 0% in experiment [2] and 100% in experiment [3]. Further, the mortality at 10 ppm was 70% in experiment [4] and 50% in experiment [6].
On to `Cc1nsc(-c2ccncc2)n1`, for which the mortality at 100 ppm is 40% in experiment [1] and 100% in experiment [5]. Also, the mortality at 200 ppm in experiment [2] was determined as 40%; in experiment [3], 100%. In addition, the mortality at 10 ppm in experiment [4] and in experiment [6] was 20% throughout.
In the case of `Cc1nsc(C2=CCCN(Cc3ccccc3)C2)n1`, the values for the mortality at 100 ppm in experiment [1] and in experiment [5] were 30% and 100%, respectively. In addition, the values for the mortality at 200 ppm in experiment [2] and in experiment [3] were 10% and 100%, respectively. Also, the mortality at 10 ppm came to 10% in experiment [4] and 0% in experiment [6].
For the molecule `Cc1nsc(-c2ccc[n+](CC#N)c2)n1`, the mortality at 100 ppm was 40% in experiment [1] and 80% in experiment [5]. In addition, the mortality at 200 ppm came out at 70% in experiment [2] and 90% in experiment [3]. Besides, the mortality at 10 ppm was 50% in experiment [4] and 10% in experiment [6].
Take `CC[n+]1cccc(-c2nc(C)ns2)c1`: the mortality at 200 ppm in experiment [2] and in experiment [3] was 20% throughout.
Consider `CCCC[n+]1cccc(-c2nc(C)ns2)c1`, for which the mortality at 200 ppm amounted to 10% in experiment [2] and 50% in experiment [3].
The matching figures for `Cc1nsc(C2CCCN(C)C2)n1` (centres undefined): 0% and 30%.
For `Cc1noc(-c2ccccn2)n1`, the mortality at 200 ppm is 0% in experiment [2] and 10% in experiment [3].
`C#CC[n+]1cccc(-c2nc(C)ns2)c1`: the mortality at 100 ppm turned out to be 50% in experiment [1] and 80% in experiment [5]. The figures for the mortality at 200 ppm in experiment [2] and in experiment [3] were 70% and 90%, respectively. The mortality at 10 ppm in experiment [4] amounted to 40%; in experiment [6] it was 10%.
Consider `Cc1noc(-c2cccnc2)n1`, for which the mortality at 100 ppm in experiment [1] was 100%; in experiment [5], 60%. Moreover, the results for the mortality at 200 ppm in experiment [2] and in experiment [3] were 30% and 90%, respectively.
Regarding `CN1CCC=C(c2ncns2)C1`, the mortality at 200 ppm in experiment [2] turned out to be 30%; in experiment [3], 60%.
As to `Cc1nsc(C2=CCCN(CC(C)C)C2)n1`, the mortality at 100 ppm in experiment [1] is 10%; in experiment [5], 100%. The mortality at 200 ppm came out at 50% in experiment [2] and 100% in experiment [3]. Moreover, the mortality at 10 ppm was found to be 70% in experiment [4] and 0% in experiment [6].

Broadly, the mortality is the percentage killed.
